Test: Stability tests in aqueous buffer solutions
Type: physicochemical
Details: for Stability at pH 2.5: aqueous buffer pH 2.5, 24 h at 37° C.; for Stability at pH 7: aqueous buffer pH 7, 24 h at 37° C.; for Stability at pH 9.5: aqueous buffer pH 9.5, 24 h at 37° C.

Row | Structure (SMILES) | Stability at pH 2.5 | Stability at pH 7 | Stability at pH 9.5
1 | Cc1cc2c(cc1C(=O)COC1CCC3(CCC(C)CC3)O1)C(C)(C)CC(C)C2(C)C (stereo not drawn) [compound 1, 1-(3,5,5,6,8,8-Hexamethyl-5,6,7,8-tetrahydro-naphtalen-2-yl)-2-(8-methyl-1-oxa-spiro[4.5]dec-2-yloxy)-ethanone] | stable | stable | stable
2 | CCCCCCCC1CCC(OCC(=O)c2cc3c(cc2C)C(C)(C)C(C)CC3(C)C)O1 (stereo not drawn) [compound 2, 2-(5-Heptyl-tetrahydro-furan-2-yloxy)-1-(3,5,5,6,8,8-hexamethyl-5,6,7,8-tetrahydro-naphtalen-2-yl)-ethanone] | stable | stable | stable
3 | CCCCCCCC1CCC(OCC(=O)c2ccc3ccccc3c2)O1 (stereo not drawn) [compound 3, 2-(5-Heptyl-tetrahydro-furan-2-yloxy)-1-naphtalen-2-yl-ethanone] | unstable | stable | stable
4 | CCCCCCCC1CCC(OCC(=O)c2ccc(OC)cc2)O1 (stereo not drawn) [compound 4, 2-(5-Heptyl-tetrahydro-furan-2-yloxy)-1-(4-methoxy-phenyl)-ethanone] | unstable | stable | stable

Second part, the compound after the results:

Row | Stability at pH 2.5 | Stability at pH 7 | Stability at pH 9.5 | Structure (SMILES)
5 | stable | stable | stable | C/C=C/CCC1CCCC(OCC(=O)c2cc3c(cc2C)C(C)(C)C(C)CC3(C)C)O1 (stereo not drawn) [compound 5, 1-(3,5,5,6,8,8-Hexamethyl-5,6,7,8-tetrahydro-naphthalen-2-yl)-2-(6-pent-3-enyl-tetrahydro-pyran-2-yloxy)-ethanone]
6 | unstable | stable | stable | C/C=C/CCC1CCCC(OCC(=O)c2ccc3ccccc3c2)O1 (stereo not drawn) [compound 6, 1-(Naphtalen-2-yl)-2-(6-pent-3-enyl-tetrahydro-pyran-2-yloxy)-ethanone]

— patent US6939845B2, “Fragrance precursors” (Givaudan SA, priority 2000, dated 2005)
